The text below walks through data of patent US12568967B2, “Compositions comprising pyridine carboxylate herbicides with synthetic auxin herbicides or auxin transport inhibitors” (priority 2018, dated 2026).

The subject of assay [1] is Alopecurus myosuroides (blackgrass, ALOMY). The assay is described as follows: Greenhouse postemergence trial ALOMY. In kind it is in vivo. As to conditions: ALOMY; 140 g/ha alone.
Protocol: (§1) Seeds of the desired test plant species were planted in a 90:10% v/v (volume/volume) mixture of PRO-MIX® BX (Premier Tech Horticulture, Quakertown, PA, USA) and PROFILE® GREENS GRADE™ (Profile Products LLC, Buffalo Grove, IL, USA) planting mixture, which typically has a pH of 5.2 to 6.2 and an organic matter content of at least 50 percent, in plastic pots with a surface area of 103.2 square centimeters (cm^2). […] The plants were grown for 7-36 days (d) in a greenhouse with an approximate 14-hour (h) photo-period which was maintained at about 23° C. during the day and 22° C. during the night. Nutrients and water were added on a regular basis and supplemental lighting was provided with overhead metal halide 1000-Watt lamps as necessary. The plants were employed for testing when they reached the second or third true leaf stage.
(§2) Emulsifiable concentrates of each of each pyridine carboxylate herbicide (Compound A or Compound B) were prepared at 100 grams acid equivalent per liter (g ae/L). The emulsifiable concentrates also included a safener, cloquintocet-mexyl, at 120 grams active ingredient per liter (g ai/L), unless otherwise noted below. An aliquot of each emulsifiable concentrate was placed in a 25 mL glass vial and diluted with an aqueous mixture of 1.25% (v/v) ACTIROB® B esterified rapeseed oil (Bayer Crop Science, Research Triangle Park, NC, USA) or MSO® Concentrate with LECI-TECH® methylated soybean oil (Loveland Products, Loveland, CO, USA) to obtain concentrated stock solutions at the highest application rate for each herbicide, based upon a 12 milliliter (mL) application volume at a rate of 187 liters per hectare (L/ha). The concentrated stock solutions were further diluted with an aqueous mixture of 1.25% v/v ACTIROB® B or MSO® Concentrate with LECI-TECH® to obtain stock solutions at reduced application rates for each herbicide. Spray solutions of the herbicide combinations (Compound A or Compound B plus synthetic auxin herbicide or auxin transport inhibitor) were prepared by adding weighed amounts or aliquots of the synthetic auxin herbicide or auxin transport inhibitor to the stock solutions of Compound A or Compound B to form 12-mL spray solutions in two-way combinations. […]
(§3) The treated plants and control plants were placed in a greenhouse as described above and watered by sub-irrigation to prevent wash-off of the test compounds. After 20-22 d, the condition of the test plants as compared with that of the control plants was determined visually and scored on a scale of 0 to 100 percent where 0 corresponds to no injury and 100 corresponds to complete kill.
The test system of assay [2] is Avena fatua (wild oat, AVEFA). The assay is described as follows: Greenhouse postemergence trial AVEFA. In kind it is in vivo. Conditions: AVEFA; 140 g/ha alone.
Protocol: as §1, §2, §3
In assay [3] the test system is Setaria faberi (giant foxtail, SETFA). The assay is described as follows: Greenhouse postemergence trial SETFA. In kind it is in vivo. As to conditions: for % visual injury, Obs: SETFA, 140 g/ha alone.
Protocol: as §1
(§4) Emulsifiable concentrates of each of each pyridine carboxylate herbicide (Compound A or Compound B) were prepared at 100 grams acid equivalent per liter (g ae/L). The emulsifiable concentrates also included a safener, cloquintocet-mexyl, at 120 grams active ingredient per liter (g ai/L), unless otherwise noted below. An aliquot of each emulsifiable concentrate was placed in a 25 mL glass vial and diluted with an aqueous mixture of 1.25% (v/v) ACTIROB® B esterified rapeseed oil (Bayer Crop Science, Research Triangle Park, NC, USA) or MSO® Concentrate with LECI-TECH® methylated soybean oil (Loveland Products, Loveland, CO, USA) to obtain concentrated stock solutions at the highest application rate for each herbicide, based upon a 12 milliliter (mL) application volume at a rate of 187 liters per hectare (L/ha). The concentrated stock solutions were further diluted with an aqueous mixture of 1.25% v/v ACTIROB® B or MSO® Concentrate with LECI-TECH® to obtain stock solutions at reduced application rates for each herbicide. Spray solutions of the herbicide combinations (Compound A or Compound B plus synthetic auxin herbicide or auxin transport inhibitor) were prepared by adding weighed amounts or aliquots of the synthetic auxin herbicide or auxin transport inhibitor to the stock solutions of Compound A or Compound B to form 12-mL spray solutions in two-way combinations.
(§5) The spray solutions were applied to the plant material with an overhead Mandel track sprayer equipped with 8002E nozzles calibrated to deliver 187 L/ha over an application area of 0.503 square meters (m^2) at a spray height of 18 inches (43 centimeters (cm)) above the average plant canopy. Control plants were sprayed in the same manner with the solvent blank. All pyridine carboxylate herbicide (component a) application rates are given as “g ae/ha” and all synthetic auxin herbicide or auxin transport inhibitor (component b) application rates are given as “g ai/ha.”
as §3
Assay [4] has as its system Glycine max (volunteer soybean, GLXMA). The assay is described as follows: Greenhouse postemergence trial GLXMA. In kind it is in vivo. Conditions: GLXMA; 140 g/ha alone.
Protocol: as §1, §4, §5, §3
The test system of assay [5] is Digitaria sanguinalis (large crabgrass, DIGSA). The assay is described as follows: Greenhouse postemergence trial DIGSA. In kind it is in vivo. Conditions: for % visual injury, Obs: DIGSA, 140 g/ha alone.
Protocol: as §1, §4, §5, §3
For assay [6], the system named is Echinochloa crus-galli (barnyard grass, ECHCG). The assay is described as follows: Greenhouse postemergence trial ECHCG. In kind it is in vivo. As to conditions: for % visual injury, Obs: ECHCG, 140 g/ha alone.
Protocol: as §1, §4, §5, §3
In assay [7] the test system is Kochia scoparia (kochia, KCHSC). The assay is described as follows: Greenhouse postemergence trial KCHSC. The assay is classed as in vivo. As to conditions: for % visual injury, Obs: KCHSC, 140 g/ha alone.
The test system of assay [8] is Polygonum convolvulus (wild buckwheat, POLCO). The assay is described as follows: Greenhouse postemergence trial POLCO. Conditions: for % visual injury, Obs: POLCO, 140 g/ha alone. In kind it is in vivo.
Assay [9] concerns Leptochloa chinensis (Chinese sprangletop, LEFCH). The assay is described as follows: Greenhouse postemergence trial LEFCH. The assay is classed as in vivo. Conditions: LEFCH; 140 g/ha alone.
Protocol: as §1, §2, §3
For assay [10], the system named is Lolium multiflorum (Italian ryegrass, LOLMU). The assay is described as follows: Greenhouse postemergence trial LOLMU. In kind it is in vivo. Conditions: for % visual injury, Obs: LOLMU, 140 g/ha alone.
Protocol: as §1, §4, §5, §3
Assay [11] relates to Abutilon theophrasti (velvetleaf, ABUTH). The assay is described as follows: Greenhouse postemergence trial ABUTH. Conditions: for % visual injury, Obs: ABUTH, 140 g/ha alone. In kind it is in vivo.
In assay [12] the test system is Sorghum vulgare (grain sorghum, SORVU). The assay is described as follows: Greenhouse postemergence trial SORVU. In kind it is in vivo. As to conditions: SORVU; 140 g/ha alone.
Protocol: as §1, §2, §3
For assay [13], the system named is Cyperus esculentus (nutsedge, CYPES). The assay is described as follows: Greenhouse postemergence trial CYPES. The assay is classed as in vivo. Conditions: CYPES; 140 g/ha alone.
Protocol: as §1, §2, §3
Assay [14] has as its system Viola tricolor (wild pansy, VIOTR). The assay is described as follows: Greenhouse postemergence trial VIOTR.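 For all read-outs here: greenhouse plants sprayed at second to third true leaf stage, injury rated visually after 20-22 d against solvent-blank sprayed controls, 0 meaning no injury and 100 complete kill.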 As to conditions: for % visual injury, Obs: VIOTR, 140 g/ha alone.
Protocol: as §1, §4, §5, §3
Assay [15] concerns Cirsium arvense (Canadian thistle, CIRAR). The assay is described as follows: Greenhouse postemergence trial CIRAR. The assay is classed as in vivo. As to conditions: for % visual injury, Obs: CIRAR, 140 g/ha alone.
Assay [16] relates to Rumex obtusifolius (broad-leaf dock, RUMOB). The assay is described as follows: Greenhouse postemergence trial RUMOB. In kind it is in vivo. Conditions: for % visual injury, Obs: RUMOB, 140 g/ha alone.
Protocol: as §1, §4, §5, §3
Assay [17] has as its system Brassica napus (winter rape, BRSNW). The assay is described as follows: Greenhouse postemergence trial BRSNW. The assay is classed as in vivo. Conditions: Brassica napus, post-emergence, read-out: % visual injury Obs.
The subject of assay [18] is Stellaria media (chickweed, STEME). The assay is described as follows: Greenhouse postemergence trial STEME. As to conditions: STEME; 140 g/ha alone. In kind it is in vivo.
Assay [19] concerns Ipomoea hederacea (ivyleaf morningglory, IPOHE). The assay is described as follows: Greenhouse postemergence trial IPOHE. The assay is classed as in vivo. As to conditions: IPOHE; 140 g/ha alone.
Protocol: as §1, §4, §5, §3
In assay [20] the test system is Helianthus annuus (common sunflower, HELAN). The assay is described as follows: Greenhouse postemergence trial HELAN. The assay is classed as in vivo. Conditions: HELAN; 140 g/ha alone.
In assay [21] the test system is Brassica napus (spring rape, BRSNN). The assay is described as follows: Greenhouse postemergence trial BRSNN. In kind it is in vivo. Conditions: diflufenzopyr 10 g/ha.
The test system of assay [22] is Oryza sativa (common rice, ORYSA). The assay is described as follows: Greenhouse postemergence trial ORYSA. The assay is classed as in vivo. As to conditions: diflufenzopyr 10 g/ha.
Protocol: as §1
Emulsifiable concentrates of each of each pyridine carboxylate herbicide (Compound A or Compound B) were prepared at 100 grams acid equivalent per liter (g ae/L). […]
as §3

On to `O=C(O)c1cc(I)cc(I)c1I` [2,3,5-TIBA], for which the “% visual injury, Obs” value in assay [1] was 0%; in [2], 0%; in assay [3] it was 0%; in assay [4] it was 40%; in assay [5], 0%; in assay [6], 0%. Moreover, the “% visual injury, Obs” value in assay [7], in assay [8], in assay [9], in [10], in assay [11] and in [12] was 0% throughout. The “% visual injury, Obs” value in assay [13], in assay [14], in assay [15], in assay [16], in assay [18] and in assay [19] was 0% each time. Further, the “% visual injury, Obs” value in assay [20] came to 0%. In addition, the plant injury at 140 g/ha in [17] is 0%.

Consider `C/C(=N\NC(=O)Nc1cc(F)cc(F)c1)c1ncccc1C(=O)O` [Diflufenzopyr], for which the “SETFA Obs (% visual injury)” value in assay [3] (diflufenzopyr 10 g/ha) turned out to be 20%. The “BRSNN Obs (% visual injury)” value in [21] was found to be 70%. The “DIGSA Obs (% visual injury)” value in [5] (diflufenzopyr 10 g/ha) is reported as 0%. For the same molecule, the “ECHCG Obs (% visual injury)” value in [6] (diflufenzopyr 10 g/ha) was 0%. Moreover, the “KCHSC Obs (% visual injury)” value in assay [7] (diflufenzopyr 10 g/ha) is given as 10%. For the same molecule, the “POLCO Obs (% visual injury)” value in [8] (diflufenzopyr 10 g/ha) is 5%. The “LOLMU Obs (% visual injury)” value in assay [10] (diflufenzopyr 10 g/ha) is on record as 8%. Besides, in [11] (diflufenzopyr 10 g/ha), the “ABUTH Obs (% visual injury)” value turned out to be 38%. Besides, in [22], the “ORYSA Obs (% visual injury)” value is 8%. Besides, the “VIOTR Obs (% visual injury)” value in assay [14] (diflufenzopyr 10 g/ha) is 8%. Moreover, in assay [15] (diflufenzopyr 10 g/ha), the “CIRAR Obs (% visual injury)” value worked out at 10%. Besides, the “RUMOB Obs (% visual injury)” value in assay [16] (diflufenzopyr 10 g/ha) came to 8%.

In the case of `O=C(O)c1ccccc1C(=O)Nc1cccc2ccccc12` [Naptalam], the “% visual injury, Obs” value in [1] came out at 0%; in [2], 0%; in assay [3], 0%; in assay [4], 13%; in assay [5], 0%; in [6], 0%. Further, the “% visual injury, Obs” value in assay [7], in assay [8], in assay [9], in [10], in assay [11] and in assay [12] was 0% each time. Moreover, the “% visual injury, Obs” value in assay [13] is recorded as 35%; in [14] it was 0%; in assay [15], 0%; in [16] it was 0%; in assay [18], 0%; in [19], 0%. Further, the “% visual injury, Obs” value in assay [20] is recorded as 0%. In addition, the plant injury at 140 g/ha in [17] worked out at 0%.
